Test results from the supplement of paper PMC11451515.

Columns and labels:
Settings in all cases: 48 h
[1] = tested on: SEM cells; assay: cell viability relative to DMSO control; higher = less cytotoxic
Outline: (§1)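 Viability values are per-plate percentages of DMSO wells, with background from cell-free wells. Library compounds in DMSO were pin-dosed, in an 11-point threefold series from 47 μM to 0.79 nM, onto NOMO1 or SEM (500 cells/well) or P12-Ichikawa (1000 cells/well) leukemia cells in 1536-well plates (5 μl). Those cells had been adapted for at least four passages in each medium, and CellTiter-Glo One luminescence was read after 48 h at 37°C.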

[2] = tested on: P12-Ichikawa; assay: as above
Outline: as §1

[3] = tested on: NOMO1; assay: as above
Outline: as §1

[4] = tested on: SEM cells; assay: AUC of viability dose-response curve (% viability x log10 dose units); higher = less sensitive
Outline: (§2)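 Leukemia cells adapted to each medium (500 or 1000 cells/well, 1536-well plates) were exposed to library compounds in DMSO for 48 h at 37°C at 11 threefold doses, 47 μM to 0.79 nM. Luminescence by CellTiter-Glo One was normalised per plate to DMSO and cell-free wells, then fitted with a four-parameter log-logistic curve on log10 dose. Curves above full viability were scaled and quality-control failures removed before area under the curve was integrated by trapezoidal rule.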

[5] = tested on: P12-Ichikawa; assay: as above
Outline: as §2

[6] = tested on: NOMO1; assay: as above
Outline: as §2

COC(=O)\C1=C\CCN(C)C1
cell viability [%]
Settings	[1]	[2]	[3]
HPLM + 10% dialyzed FBS, 0.000781 µM	113	111	125
HPLM + 10% dialyzed FBS, 0.00234 µM	109	106	115
HPLM + 10% dialyzed FBS, 0.00702 µM	106	105	111
HPLM + 10% dialyzed FBS, 0.0211 µM	113	100	102
HPLM + 10% dialyzed FBS, 0.0632 µM	102	103	101
HPLM + 10% dialyzed FBS, 0.19 µM	117	108	124
HPLM + 10% dialyzed FBS, 0.569 µM	103	96.9	135
HPLM + 10% dialyzed FBS, 1.71 µM	105	102	115
HPLM + 10% dialyzed FBS, 5.12 µM	109	93.7	113
HPLM + 10% dialyzed FBS, 15.4 µM	114	102	112
HPLM + 10% dialyzed FBS, 46.1 µM	106	105	109
RPMI 5 mM glucose + 10% FBS, 0.000781 µM	107	102	84.7
RPMI 5 mM glucose + 10% FBS, 0.00234 µM	103	115	94.8
RPMI 5 mM glucose + 10% FBS, 0.00702 µM	106	113	96.5
RPMI 5 mM glucose + 10% FBS, 0.0211 µM	109	104	91.3
RPMI 5 mM glucose + 10% FBS, 0.0632 µM	104	102	85.3
RPMI 5 mM glucose + 10% FBS, 0.19 µM	111	108	94
RPMI 5 mM glucose + 10% FBS, 0.569 µM	111	111	110
RPMI 5 mM glucose + 10% FBS, 1.71 µM	110	115	97.4
RPMI 5 mM glucose + 10% FBS, 5.12 µM	98.8	107	93.6
RPMI 5 mM glucose + 10% FBS, 15.4 µM	99.8	98.4	87
RPMI 5 mM glucose + 10% FBS, 46.1 µM	110	101	99
RPMI 5 mM glucose + 10% dialyzed FBS, 0.000781 µM	101	101	95.7
RPMI 5 mM glucose + 10% dialyzed FBS, 0.00234 µM	111	101	96.3
RPMI 5 mM glucose + 10% dialyzed FBS, 0.00702 µM	109	97	98.9
RPMI 5 mM glucose + 10% dialyzed FBS, 0.0211 µM	115	96.1	95.7
RPMI 5 mM glucose + 10% dialyzed FBS, 0.0632 µM	127	96.3	107
RPMI 5 mM glucose + 10% dialyzed FBS, 0.19 µM	106	99.8	97.4
RPMI 5 mM glucose + 10% dialyzed FBS, 0.569 µM	114	102	92.5
RPMI 5 mM glucose + 10% dialyzed FBS, 1.71 µM	124	101	97.6
RPMI 5 mM glucose + 10% dialyzed FBS, 5.12 µM	110	93	88.9
RPMI 5 mM glucose + 10% dialyzed FBS, 15.4 µM	106	99	102
RPMI 5 mM glucose + 10% dialyzed FBS, 46.1 µM	105	93.3	103

AUC of viability dose-response curve
Settings	[4]	[5]	[6]
HPLM + 10% dialyzed FBS	473	446	473
RPMI 5 mM glucose + 10% FBS	473	470	448
RPMI 5 mM glucose + 10% dialyzed FBS	477	468	466
